Reference: PMC5065788 (Bioorganic & medicinal chemistry, 2016)
Read-outs that look alike come from different tables or passages of the source.

Legend:
recombinant human ER-α [1] = target: T1, recombinant human ER-α (Homo sapiens, UniProt P03372); details: at 100 μM; previously reported compounds included for comparison; cited from earlier work
T1 sequence (P03372 1-595): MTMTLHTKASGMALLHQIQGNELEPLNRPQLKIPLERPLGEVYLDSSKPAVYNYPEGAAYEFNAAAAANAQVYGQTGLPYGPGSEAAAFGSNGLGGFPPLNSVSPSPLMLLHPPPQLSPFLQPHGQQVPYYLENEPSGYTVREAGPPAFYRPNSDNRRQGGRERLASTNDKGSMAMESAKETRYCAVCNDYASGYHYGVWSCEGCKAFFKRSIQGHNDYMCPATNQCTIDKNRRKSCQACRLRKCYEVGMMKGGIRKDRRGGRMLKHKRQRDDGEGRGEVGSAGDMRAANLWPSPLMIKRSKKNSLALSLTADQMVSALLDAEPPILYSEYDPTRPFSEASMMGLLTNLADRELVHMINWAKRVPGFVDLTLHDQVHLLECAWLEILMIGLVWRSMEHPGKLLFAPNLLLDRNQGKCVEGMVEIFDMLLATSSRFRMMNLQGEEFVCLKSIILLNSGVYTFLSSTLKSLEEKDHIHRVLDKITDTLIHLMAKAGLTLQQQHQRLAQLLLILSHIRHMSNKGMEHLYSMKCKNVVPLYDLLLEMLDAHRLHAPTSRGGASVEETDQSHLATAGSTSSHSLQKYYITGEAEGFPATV

recombinant human ER-β [2] = target: T2, recombinant human ER-β (Homo sapiens, UniProt Q92731); details: at 100 μM; previously reported compounds included for comparison; cited from earlier work
[3] = target: T3, recombinant human aromatase (CYP19) (Homo sapiens, UniProt P11511); assay: Inhibition of recombinant human aromatase; format: biochemical; details: ratio of IC50 values vs 13 (24880 nM)
T3 sequence (P11511 1-503): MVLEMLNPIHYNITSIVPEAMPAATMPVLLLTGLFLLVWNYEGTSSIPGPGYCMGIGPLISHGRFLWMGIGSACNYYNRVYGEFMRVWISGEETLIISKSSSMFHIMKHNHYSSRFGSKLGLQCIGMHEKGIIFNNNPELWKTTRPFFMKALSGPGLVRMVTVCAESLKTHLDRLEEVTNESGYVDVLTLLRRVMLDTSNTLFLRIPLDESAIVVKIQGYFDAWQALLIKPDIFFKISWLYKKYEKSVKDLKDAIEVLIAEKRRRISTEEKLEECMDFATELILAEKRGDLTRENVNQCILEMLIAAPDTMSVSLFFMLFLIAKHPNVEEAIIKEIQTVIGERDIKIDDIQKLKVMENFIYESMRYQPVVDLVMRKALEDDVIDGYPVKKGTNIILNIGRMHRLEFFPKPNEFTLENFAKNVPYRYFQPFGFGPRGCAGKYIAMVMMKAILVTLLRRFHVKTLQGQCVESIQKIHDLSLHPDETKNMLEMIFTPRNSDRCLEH

recombinant human ER-β [4] = target: T2, recombinant human ER-β; assay: Binding affinity for recombinant human ER-β; details: at 100 μM (100000 nM)
recombinant human ER-α [5] = target: T1, recombinant human ER-α; assay: Binding affinity for recombinant human ER-α; details: at 100 μM (100000 nM)
[6] = test system: progesterone receptor (PGR) mRNA expression in MCF-7 cells; assay: Antagonism of β-estradiol-stimulated progesterone receptor; format: cell-based, human; details: 1 μM compound in the presence of 10 nM β-estradiol, 24 hours

T2 sequence (Q92731 whole entry): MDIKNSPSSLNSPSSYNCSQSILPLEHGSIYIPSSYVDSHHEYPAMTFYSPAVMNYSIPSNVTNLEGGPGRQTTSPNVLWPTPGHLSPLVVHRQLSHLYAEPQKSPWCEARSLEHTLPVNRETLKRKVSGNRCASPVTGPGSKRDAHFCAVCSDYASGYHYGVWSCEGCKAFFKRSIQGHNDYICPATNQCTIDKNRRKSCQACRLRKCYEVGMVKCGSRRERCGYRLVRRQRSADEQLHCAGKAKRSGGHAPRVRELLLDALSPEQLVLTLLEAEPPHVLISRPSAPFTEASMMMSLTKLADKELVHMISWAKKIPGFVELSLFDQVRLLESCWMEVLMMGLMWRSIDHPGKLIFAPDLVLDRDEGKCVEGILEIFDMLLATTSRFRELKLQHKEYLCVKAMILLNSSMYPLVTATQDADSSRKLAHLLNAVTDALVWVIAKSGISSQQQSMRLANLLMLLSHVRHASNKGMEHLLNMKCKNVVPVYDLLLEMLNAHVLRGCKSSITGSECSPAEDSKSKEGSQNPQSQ

Compound: CC/C(=C(/c1ccc(O)cc1)c1ccc(OCC(N)=O)cc1)c1ccccc1 [Compound 17, (E,Z)-2-(4-(1-(4-Hydroxyphenyl)-2-phenylbut-1-enyl)phenoxy)-acetamide]
- ER-α percent competition (recombinant human ER-α [1]): 57% competition at 100 μM
- ER-β percent competition (recombinant human ER-β [2]): 71% competition at 100 μM

Compound: CC(=C(c1ccc(N)cc1)c1ccc(N)cc1)c1ccc([N+](=O)[O-])cc1 [Compound 12c, 4-(1-(4-Aminophenyl)-2-(4-nitrophenyl)prop-1-enyl)benzenamine]
- times more potent than 13 against aromatase [3]: 113 times

Compound: CC(=C(c1ccc(O)cc1)c1ccc(OCC(N)=O)cc1)c1ccc([N+](=O)[O-])cc1 [Compound 16a, (E,Z)-2-(4-(1-(4-Hydroxyphenyl)-2-(4-nitrophenyl)prop-1-enyl)phenoxy)-acetamide]
- ER-β percent competition (recombinant human ER-β [4]): 0% competition at 100 μM
- ER-α percent competition (recombinant human ER-α [5]): 0% competition at 100 μM

Compound: CCC(=C(c1ccc(N)cc1)c1ccc(NCC(N)=O)cc1)c1ccc([N+](=O)[O-])cc1 [Compound 16d, (E,Z)-2-(4-(1-(4-Aminophenyl)-2-(4-nitrophenyl)but-1-enyl)phenylamino)acetamide]
- PGR mRNA expression level relative to estradiol (100%) [6]: 19.6%

Compound: CCC(=C(c1ccc(N)cc1)c1ccc(N)cc1)c1ccc([N+](=O)[O-])cc1 [Compound 12d, 4-(1-(4-Aminophenyl)-2-(4-nitrophenyl)but-1-enyl)benzenamine]
- times more potent than 13 against aromatase [3]: 400 times

Compound: CCC(=C(c1ccc(O)cc1)c1ccc(O)cc1)c1ccccc1 [Compound 13, 4-(1-(4-Hydroxyphenyl)-2-phenylbut-1-enyl)phenol]
- ER-α percent competition (recombinant human ER-α [1]): 80% competition at 100 μM

Compound: CCC(=C(c1ccc(O)cc1)c1ccc(OCC(N)=O)cc1)c1ccc([N+](=O)[O-])cc1 [Compound 16b, (E,Z)-2-(4-(1-(4-Hydroxyphenyl)-2-(4-nitrophenyl)but-1-enyl)phenoxy)-acetamide]
- ER-β percent competition (recombinant human ER-β [4]): 0% competition at 100 μM
- ER-α percent competition (recombinant human ER-α [5]): 0% competition at 100 μM
